test system: not listed separately; test: Metabolic stability in mouse liver microsome assessed as parent compound remaining measured at 60 mins by LCMS/MS analysis; format: ADME; details: liver microsomes, read-out: Stability

In order of falling remaining at 1 h:
1. C=CCn1c(=O)c2cnc(Nc3ccc(N4CCN(CCN(C)C)CC4)cc3)nc2n1-c1cccc(-c2ncccn2)n1  94.7%
2. C=CCn1c(=O)c2cnc(Nc3ccc(N4CCN(C)CC4)c(OC)c3)nc2n1-c1cccc(-c2cccnn2)n1  53.1%
3. C=CCn1c(=O)c2cnc(Nc3ccc(N4CCN(C)CC4)cc3)nc2n1-c1cccc(-c2ncc(F)cn2)n1  48.2%
4. C=CCn1c(=O)c2cnc(Nc3ccc(N4C[C@H]5C[C@@H]4CN5C)cc3)nc2n1-c1cccc(-c2cnccn2)n1  40.5%
5. C=CCn1c(=O)c2cnc(Nc3ccc4c(c3)CN(C)CC4)nc2n1-c1cccc(-c2cccnn2)n1  39.4%
6. C=CCn1c(=O)c2cnc(Nc3ccc(N4CCN(C)CC4)cc3)nc2n1-c1cccc(-n2cnc(C)c2)n1  18.6%
7. C=CCn1c(=O)c2cnc(Nc3ccc(N4CCN(C)CC4)cc3)nc2n1-c1cccc(-c2cccc(F)n2)n1  18.4%
8. C=CCn1c(=O)c2cnc(Nc3ccc(N4CCN(C)CC4)cc3)nc2n1-c1cccc(-c2ccc(F)cn2)n1  18.1%
9. C=CCn1c(=O)c2cnc(Nc3ccc(N4C[C@@H](C)N[C@@H](C)C4)cc3)nc2n1-c1cccc(-c2cnccn2)n1  17.8%
10. C=CCn1c(=O)c2cnc(Nc3ccc(N4CCN(C)CC4)cc3)nc2n1-c1cccc(-n2cc(F)cn2)n1  15.9%

test system: A-427; test: Antiproliferative activity against human A-427 cells assessed as inhibition of cell growth incubated for 72 hrs by CCK-8 assay; format: functional, cell-based; details: A-427, 72 h

In order of rising IC50:
1. C=CCn1c(=O)c2cnc(Nc3ccc(N4C[C@H]5C[C@@H]4CN5C)cc3)nc2n1-c1cccc(-c2cnccn2)n1  226 nM
2. C=CCn1c(=O)c2cnc(Nc3ccc(N4CCN(C)CC4)c(OC)c3)nc2n1-c1cccc(-c2cccnn2)n1  231 nM
3. C=CCn1c(=O)c2cnc(Nc3ccc(N4C[C@@H](C)N[C@@H](C)C4)cc3)nc2n1-c1cccc(-c2cnccn2)n1  232 nM
4. C=CCn1c(=O)c2cnc(Nc3ccc4c(c3)CN(C)CC4)nc2n1-c1cccc(-c2cccnn2)n1  245 nM
5. C=CCn1c(=O)c2cnc(Nc3ccc(N4CCN(C)CC4)cc3)nc2n1-c1cccc(-c2cccc(F)n2)n1  280 nM
6. C=CCn1c(=O)c2cnc(Nc3ccc(N4CCN(C)CC4)cc3)nc2n1-c1cccc(-c2ccc(F)cn2)n1  327 nM
7. C=CCn1c(=O)c2cnc(Nc3ccc(N4CCN(C)CC4)cc3)nc2n1-c1cccc(-n2cc(F)cn2)n1  329 nM
8. C=CCn1c(=O)c2cnc(Nc3ccc(N4CCN(C)CC4)cc3)nc2n1-c1cccc(-n2cnc(C)c2)n1  347 nM
9. C=CCn1c(=O)c2cnc(Nc3ccc(N4CCN(C)CC4)cc3)nc2n1-c1cccc(-c2ncc(F)cn2)n1  454 nM
10. C=CCn1c(=O)c2cnc(Nc3ccc(N4CCN(CCN(C)C)CC4)cc3)nc2n1-c1cccc(-c2ncccn2)n1  556 nM

biological target: Wee1-like protein kinase (Homo sapiens, UniProt P30291); test: Inhibition of human Wee1 (215 to 647 residues) using polyornithine/tyrosine (4:1) as substrate incubated for 5 mins in presence of ATP by micro beta plate reader analysis; details: not given
Sequence (P30291 whole entry, the tested form may be a part): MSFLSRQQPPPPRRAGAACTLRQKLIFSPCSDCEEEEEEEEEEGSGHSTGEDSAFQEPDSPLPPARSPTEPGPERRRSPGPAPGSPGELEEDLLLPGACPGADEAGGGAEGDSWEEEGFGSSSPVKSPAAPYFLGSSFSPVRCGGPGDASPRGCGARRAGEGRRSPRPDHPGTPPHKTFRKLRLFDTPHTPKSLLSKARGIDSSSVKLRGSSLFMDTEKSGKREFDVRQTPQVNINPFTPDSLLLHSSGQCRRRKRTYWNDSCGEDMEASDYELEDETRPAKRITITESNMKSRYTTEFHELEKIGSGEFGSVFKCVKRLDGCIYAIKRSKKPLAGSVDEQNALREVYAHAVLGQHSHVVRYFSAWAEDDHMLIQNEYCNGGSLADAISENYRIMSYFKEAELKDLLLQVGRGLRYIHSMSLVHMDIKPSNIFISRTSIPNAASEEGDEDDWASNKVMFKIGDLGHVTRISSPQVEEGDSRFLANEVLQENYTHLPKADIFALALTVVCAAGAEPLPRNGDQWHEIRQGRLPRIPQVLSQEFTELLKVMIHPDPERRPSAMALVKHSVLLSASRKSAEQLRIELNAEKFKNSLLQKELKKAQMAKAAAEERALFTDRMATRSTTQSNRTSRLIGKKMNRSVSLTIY

In order of falling IC50:
1. C=CCn1c(=O)c2cnc(Nc3ccc(N4CCN(C)CC4)cc3)nc2n1-c1cccc(-n2cc(F)cn2)n1  4.5 nM
2. C=CCn1c(=O)c2cnc(Nc3ccc(N4CCN(C)CC4)cc3)nc2n1-c1cccc(-n2cnc(C)c2)n1  3.8 nM
3. C=CCn1c(=O)c2cnc(Nc3ccc(N4CCN(C)CC4)cc3)nc2n1-c1cccc(-c2ncc(F)cn2)n1  3.2 nM
4. C=CCn1c(=O)c2cnc(Nc3ccc(N4CCN(CCN(C)C)CC4)cc3)nc2n1-c1cccc(-c2ncccn2)n1  3.1 nM
5. C=CCn1c(=O)c2cnc(Nc3ccc(N4CCN(C)CC4)c(OC)c3)nc2n1-c1cccc(-c2cccnn2)n1  2.5 nM
6. C=CCn1c(=O)c2cnc(Nc3ccc(N4C[C@H]5C[C@@H]4CN5C)cc3)nc2n1-c1cccc(-c2cnccn2)n1  2.3 nM
7. C=CCn1c(=O)c2cnc(Nc3ccc4c(c3)CN(C)CC4)nc2n1-c1cccc(-c2cccnn2)n1  2.3 nM
8. C=CCn1c(=O)c2cnc(Nc3ccc(N4CCN(C)CC4)cc3)nc2n1-c1cccc(-c2cccc(F)n2)n1  2.2 nM
9. C=CCn1c(=O)c2cnc(Nc3ccc(N4CCN(C)CC4)cc3)nc2n1-c1cccc(-c2ccc(F)cn2)n1  1.8 nM
10. C=CCn1c(=O)c2cnc(Nc3ccc(N4C[C@@H](C)N[C@@H](C)C4)cc3)nc2n1-c1cccc(-c2cnccn2)n1  1.7 nM

test system: not listed separately; test: Metabolic stability in human liver microsome assessed as parent compound remaining measured at 60 mins by LCMS/MS analysis; format: ADME; details: liver microsomes, read-out: Stability

In order of rising remaining at 1 h:
1. C=CCn1c(=O)c2cnc(Nc3ccc(N4CCN(C)CC4)cc3)nc2n1-c1cccc(-n2cc(F)cn2)n1  3.89%
2. C=CCn1c(=O)c2cnc(Nc3ccc(N4CCN(C)CC4)cc3)nc2n1-c1cccc(-n2cnc(C)c2)n1  7.35%
3. C=CCn1c(=O)c2cnc(Nc3ccc(N4CCN(C)CC4)cc3)nc2n1-c1cccc(-c2ccc(F)cn2)n1  29.7%
4. C=CCn1c(=O)c2cnc(Nc3ccc(N4CCN(C)CC4)cc3)nc2n1-c1cccc(-c2cccc(F)n2)n1  32.5%
5. C=CCn1c(=O)c2cnc(Nc3ccc(N4CCN(C)CC4)c(OC)c3)nc2n1-c1cccc(-c2cccnn2)n1  34.8%
6. C=CCn1c(=O)c2cnc(Nc3ccc4c(c3)CN(C)CC4)nc2n1-c1cccc(-c2cccnn2)n1  42.2%
7. C=CCn1c(=O)c2cnc(Nc3ccc(N4C[C@@H](C)N[C@@H](C)C4)cc3)nc2n1-c1cccc(-c2cnccn2)n1  44.1%
8. C=CCn1c(=O)c2cnc(Nc3ccc(N4CCN(C)CC4)cc3)nc2n1-c1cccc(-c2ncc(F)cn2)n1  49.8%
9. C=CCn1c(=O)c2cnc(Nc3ccc(N4C[C@H]5C[C@@H]4CN5C)cc3)nc2n1-c1cccc(-c2cnccn2)n1  73.5%
10. C=CCn1c(=O)c2cnc(Nc3ccc(N4CCN(CCN(C)C)CC4)cc3)nc2n1-c1cccc(-c2ncccn2)n1  106%
